According to article PMC8624133, “10th Trends in Medical Mycology Held on 8 to 11 October 2021, Aberdeen, Scotland, Organized by the European Confederation of Medical Mycology (ECMM)” (Journal of Fungi, 2021):
Converted amounts (≈) assume the structure as drawn. Where two headings read alike, the source gives them in different places.

Key:
[1] = system: environmental yeasts from a lagoon; experiment: organism not typed; assay type: cell-based
F. verticillioides = experiment: Etest susceptibility; assay type: cell-based, Fusarium verticillioides
Other species of Candida = assay type: cell-based, Candida spp.
Aspergillus tubingensis = experiment: EUCAST susceptibility; assay type: cell-based
Protocol: The fungus was identified as Aspergillus niger and liposomal amphotericine B was switched to anidulafungin pending susceptibility testing as the patient had pre-existing […] (eGFR CKD-EPI 40 mL/min/1.73 m²). […] Despite increasing the anidulafungin dosage to 200 mg daily and adequate voriconazol levels, serum galactomannan levels remained elevated (index 2.1 at discharge). […] Since no extracardiac sources were found and the patient did well clinically, they were discharched. Anidulafungin was switched to caspofungin to facilitate ongoing IV treatment in the outpatient setting. […] The patient died shortly after. Obduction was not performed.

[2] = system: Exophiala phaeomuriformis; experiment: MIC, CLSI M27-A3; assay type: cell-based; details: read-out: MIC values
Protocol: Materials & Methods: The aviation kerosone samples came from an aviation company in Porto Alegre, state of Rio Grande do Sul, Brazil. The fungi isolation was carried out using the modified ASTM D6974-09 Standard. In this procedure, 500 mL kerosene samples were filtered, in triplicate, under aseptic conditions, under vacuum, using a 0.22 μm membrane (Millipore). After filtering, the membranes were deposited in potato dextrose agar culture medium. The plates were incubated in an oven at 30 °C for seven days. After this period, the colonies were isolated in new culture media for purification of the isolates. Molecular identification was performed through the sequencing of ITS DNA regions. The profile of sensitivity to clinical antifungals was assessed following protocols M27-A3 of the Clinical and Laboratory Standards Institute (CLSI).

C. parapsilosis = assay type: cell-based, Candida parapsilosis
[3] = system: sessile cells of yeast mono and dual-species biofilms; experiment: MIC of catheter yeast isolates, mono and dual-species biofilms; assay type: cell-based; details: range
[4] = system: Candida sp. and other yeast isolates, planktonic; experiment: MIC of catheter yeast isolates, planktonic form; assay type: cell-based; details: range; read-out: MIC
[5] = system: invasive C. glabrata strains; experiment: YeastOne Sensititre colorimetric broth microdilution; assay type: cell-based, Candida glabrata; details: Nakaseomyces glabratus
Protocol: Material and Method: Thirty-six clinical isolates of invasive C. glabrata strains were analyzed in this study. Minimum inhibitory concentrations (MICs) were determined using colorimetric broth microdilution (YeastOneSensititre, Trek diagnostics). Genomic DNA was isolated using Qiagen DNA extraction Kit. The FKS1 and FKS2 gene fragment were amplified and PCR products were purified prior to sequencing. Double-strand sequencing of PCR products was performed using Sanger sequencing methodology. Sequences were analyzed with MEGA-6 software to identify specific SNP combination against wild-type sequences of C. glabrata.

C. glabrata [6] = assay type: cell-based, Candida glabrata
C. krusei = assay type: cell-based, Candida krusei
Candida auris isolates [7] = experiment: microbe, parasite or virus in culture; assay type: cell-based
C. albicans [8] = experiment: Candidemia Netherlands, MIC distributions against EUCAST ECOFF; assay type: cell-based, Candida albicans
C. tropicalis = assay type: cell-based, Candida tropicalis
Candida auris isolates [9] = experiment: Disc diffusion, Oxoid discs; assay type: cell-based
C. albicans [10] = assay type: cell-based, Candida albicans
[11] = system: C. auris clinical strains; experiment: organism not typed; assay type: cell-based, Candida auris; details: range, 78 strains from patients with COVID-19
C. glabrata [12] = experiment: Candidemia Netherlands, MIC distributions against EUCAST ECOFF; assay type: cell-based, Candida glabrata
[13] = system: Candida spp. blood isolates; details: 2009–2018
Protocol: Ward of hospitalization at the time of the diagnosis, species identification and in vitro antifungal susceptibility profile (where available) were recorded. Identification of Candida isolates and susceptibility testing were performed as per hospital protocol. Annual incidence rates/100,000 inhabitants were calculated. Chi-square test for trend was used for evaluation of changes in species distribution.

CC[C@H](C)C[C@H](C)CCCCCCCCC(=O)N[C@H]1C[C@@H](O)[C@@H](NCCN)NC(=O)[C@@H]2[C@@H](O)CCN2C(=O)[C@H]([C@H](O)CCN)NC(=O)[C@H]([C@H](O)[C@@H](O)c2ccc(O)cc2)NC(=O)[C@@H]2C[C@@H](O)CN2C(=O)[C@H]([C@@H](C)O)NC1=O [caspofungin]
isolates classified as resistant-like ([1]; number of 71 yeasts, MIC at or above Candida breakpoint): 48 | MIC ([1]; range, read-out: MIC of resistant-like isolates): 1 to 128 µg/mL | minimum inhibitory concentration (MIC), in words (F. verticillioides): high values | I (intermediate) isolates, n (%) (Other species of Candida): 0 (0%) | R (resistant) isolates, n (%) (Other species of Candida): 0 (0%) | S (sensitive) isolates, n (%) (Other species of Candida): 18 (100%) | MIC (Aspergillus tubingensis): 60 µg/mL (≈ 54.9 µM) | MIC [2]: > 8 µg/mL | I (intermediate) isolates, n (%) (C. parapsilosis): 0 (0%) | R (resistant) isolates, n (%) (C. parapsilosis): 0 (0%) | S (sensitive) isolates, n (%) (C. parapsilosis): 132 (100%) | MIC [3]: 0.5 to 16 µg/mL | MIC [4]: 0.06 to 1 µg/mL | MIC ([5]; 36 clinical isolates, read-out: median (Min–Max) MIC): 0.06 µg/mL | MIC ([5]; isolate with FKS1 D632H): 0.25 µg/mL | MIC ([5]; isolate with FKS2 I661T): 0.12 µg/mL | R (resistant) isolates, n (%) (C. glabrata [6]): 3 (5.5%) | S (sensitive) isolates, n (%) (C. glabrata [6]): 44 (80%) | I (intermediate) isolates, n (%) (C. krusei): 1 (33.3%) | S (sensitive) isolates, n (%) (C. krusei): 2 (66.7%) | categorised as resistant on MIC (Candida auris isolates [7]; CDC guidelines): 13.2% | MIC (Candida auris isolates [7]; Candidozyma auris, […], IQR given, read-out: median MIC): 0.12 µg/mL (≈ 0.11 µM) | isolates within the wildtype distribution range (C. albicans [8]): 98.9% | I (intermediate) isolates, n (%) (C. tropicalis): 0 (0%) | R (resistant) isolates, n (%) (C. tropicalis): 0 (0%) | S (sensitive) isolates, n (%) (C. tropicalis): 44 (100%) | categorised as resistant on ZD (Candida auris isolates [9]): none | median zone diameter (ZD) (Candida auris isolates [9]; 25 µg FLU and 5 µg CAS discs, […]): 23 mm | I (intermediate) isolates, n (%) (C. albicans [10]): 0 (0%) | R (resistant) isolates, n (%) (C. albicans [10]): 0 (0%) | S (sensitive) isolates, n (%) (C. albicans [10]): 138 (100) | MIC [11]: 0.06 to 1 µg/mL (≈ 0.0549 to 0.915 µM) | isolates within the wildtype distribution range (C. glabrata [12]): 87.1%

Nc1[nH]c(=O)ncc1F [5-flucytosine]
MIC [11]: 0.06 to 0.12 µg/mL (≈ 0.465 to 0.93 µM) | Resistance [13]: No resistance
